From article PMC3919815, “Anti-Tumor Effects of Novel 5-O-Acyl Plumbagins Based on the Inhibition of Mammalian DNA Replicative Polymerase Activity” (PLoS ONE, 2014)

What was measured:
[1] = molecular target: Mouse IMP dehydrogenase (type II) (Mus musculus, UniProt P24547); assay: Other DNA metabolic enzyme assay; assay type: biochemical
Description: (§1) The activities of calf primase of pol α, T7 RNA polymerase, mouse inosine-5′-[…] (IMP) dehydrogenase (type II), T4 polynucleotide kinase, and bovine deoxyribonuclease I were measured in standard assays according to the manufacturer's specifications, as described by Tamiya-Koizumi et al., Nakayama and Saneyoshi, Mizushina et al., Soltis et al., and Lu and Sakaguchi, respectively.

[2] = molecular target: Calf primase of pol α (Bos taurus, UniProt A0A3Q1MF00); assay: Other DNA metabolic enzyme assay; assay type: biochemical
Chain of Calf primase of pol α (A0AAA9THK8 entry or part of it): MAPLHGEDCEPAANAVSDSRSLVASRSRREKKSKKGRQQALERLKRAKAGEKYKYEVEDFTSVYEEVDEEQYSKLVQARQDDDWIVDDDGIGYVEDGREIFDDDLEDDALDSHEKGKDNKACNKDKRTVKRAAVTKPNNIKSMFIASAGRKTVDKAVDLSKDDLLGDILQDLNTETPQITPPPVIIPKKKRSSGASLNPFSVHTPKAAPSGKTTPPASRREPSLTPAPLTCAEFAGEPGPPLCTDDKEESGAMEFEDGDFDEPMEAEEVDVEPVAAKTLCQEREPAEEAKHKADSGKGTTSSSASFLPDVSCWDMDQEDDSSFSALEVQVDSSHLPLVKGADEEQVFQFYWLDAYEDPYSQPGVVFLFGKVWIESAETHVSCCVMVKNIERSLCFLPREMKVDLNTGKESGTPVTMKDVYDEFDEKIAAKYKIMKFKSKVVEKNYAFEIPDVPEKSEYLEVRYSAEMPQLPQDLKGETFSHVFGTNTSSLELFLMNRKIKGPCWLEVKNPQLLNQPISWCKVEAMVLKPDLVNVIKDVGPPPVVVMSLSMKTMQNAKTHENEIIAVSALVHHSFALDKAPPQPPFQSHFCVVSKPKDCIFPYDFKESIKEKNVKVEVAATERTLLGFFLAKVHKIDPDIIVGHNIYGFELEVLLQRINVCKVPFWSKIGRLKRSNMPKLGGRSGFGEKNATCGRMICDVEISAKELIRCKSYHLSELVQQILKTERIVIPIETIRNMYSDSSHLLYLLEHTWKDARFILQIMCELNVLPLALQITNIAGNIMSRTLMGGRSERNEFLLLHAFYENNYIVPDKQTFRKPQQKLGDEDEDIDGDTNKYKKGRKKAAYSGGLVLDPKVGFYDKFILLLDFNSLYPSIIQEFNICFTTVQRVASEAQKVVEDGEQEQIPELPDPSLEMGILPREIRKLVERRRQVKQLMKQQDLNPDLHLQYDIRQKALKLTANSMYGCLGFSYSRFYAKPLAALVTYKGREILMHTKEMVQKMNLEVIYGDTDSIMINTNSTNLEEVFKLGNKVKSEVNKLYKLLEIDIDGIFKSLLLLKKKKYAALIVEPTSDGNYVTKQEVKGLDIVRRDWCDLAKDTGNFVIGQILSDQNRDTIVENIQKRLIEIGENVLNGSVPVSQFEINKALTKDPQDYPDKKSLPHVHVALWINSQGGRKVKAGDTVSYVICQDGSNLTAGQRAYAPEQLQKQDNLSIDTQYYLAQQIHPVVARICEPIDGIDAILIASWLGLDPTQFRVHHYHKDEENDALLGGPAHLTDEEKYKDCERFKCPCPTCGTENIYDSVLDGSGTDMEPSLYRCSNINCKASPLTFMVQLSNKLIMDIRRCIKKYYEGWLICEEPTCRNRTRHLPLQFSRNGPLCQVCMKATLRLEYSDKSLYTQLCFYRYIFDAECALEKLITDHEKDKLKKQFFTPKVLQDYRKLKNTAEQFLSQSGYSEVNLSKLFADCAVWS
Chain of Calf primase of pol α (A0JNF4 entry or part of it, further chain): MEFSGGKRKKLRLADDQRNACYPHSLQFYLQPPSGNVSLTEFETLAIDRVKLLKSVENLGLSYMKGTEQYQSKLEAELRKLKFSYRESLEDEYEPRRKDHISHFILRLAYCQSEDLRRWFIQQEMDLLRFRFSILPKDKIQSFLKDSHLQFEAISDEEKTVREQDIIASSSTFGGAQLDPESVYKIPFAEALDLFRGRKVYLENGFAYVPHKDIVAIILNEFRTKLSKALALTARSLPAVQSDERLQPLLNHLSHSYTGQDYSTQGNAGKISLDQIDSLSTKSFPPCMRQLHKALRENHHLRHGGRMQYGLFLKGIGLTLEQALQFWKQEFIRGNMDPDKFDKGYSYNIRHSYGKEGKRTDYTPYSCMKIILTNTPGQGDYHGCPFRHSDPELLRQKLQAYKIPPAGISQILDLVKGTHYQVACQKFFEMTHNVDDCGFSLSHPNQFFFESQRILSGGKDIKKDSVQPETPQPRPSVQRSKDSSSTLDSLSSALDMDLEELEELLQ
Chain of Calf primase of pol α (A0A3Q1MF00 entry or part of it): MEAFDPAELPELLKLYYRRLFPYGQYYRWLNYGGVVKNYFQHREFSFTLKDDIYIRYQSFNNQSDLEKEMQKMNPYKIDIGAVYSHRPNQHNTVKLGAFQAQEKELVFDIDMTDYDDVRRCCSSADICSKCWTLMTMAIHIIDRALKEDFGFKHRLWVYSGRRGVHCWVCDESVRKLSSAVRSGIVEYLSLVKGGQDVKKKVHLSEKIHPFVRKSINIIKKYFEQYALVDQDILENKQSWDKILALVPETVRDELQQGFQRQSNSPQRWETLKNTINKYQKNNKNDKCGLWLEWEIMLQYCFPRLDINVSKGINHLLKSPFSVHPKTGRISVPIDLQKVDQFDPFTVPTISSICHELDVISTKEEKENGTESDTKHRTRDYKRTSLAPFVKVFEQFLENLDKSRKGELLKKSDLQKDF
Chain of Calf primase of pol α (Q58D13 whole entry, further chain): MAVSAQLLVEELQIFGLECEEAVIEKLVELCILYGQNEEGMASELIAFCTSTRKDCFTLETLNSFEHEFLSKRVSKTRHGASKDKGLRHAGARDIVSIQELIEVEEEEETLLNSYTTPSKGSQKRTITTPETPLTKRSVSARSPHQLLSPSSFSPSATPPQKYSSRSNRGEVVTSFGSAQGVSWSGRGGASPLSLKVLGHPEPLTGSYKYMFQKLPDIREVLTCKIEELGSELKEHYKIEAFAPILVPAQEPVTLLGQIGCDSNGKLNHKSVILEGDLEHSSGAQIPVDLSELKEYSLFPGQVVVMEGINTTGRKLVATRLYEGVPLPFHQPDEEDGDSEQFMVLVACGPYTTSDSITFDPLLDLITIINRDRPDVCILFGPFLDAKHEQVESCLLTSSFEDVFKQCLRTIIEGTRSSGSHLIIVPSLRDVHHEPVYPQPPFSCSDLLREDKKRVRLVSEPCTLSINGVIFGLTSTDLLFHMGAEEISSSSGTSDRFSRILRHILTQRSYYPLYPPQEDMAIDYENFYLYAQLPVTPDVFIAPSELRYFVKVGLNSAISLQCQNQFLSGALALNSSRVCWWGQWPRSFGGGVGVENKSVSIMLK
Description: as §1

[3] = system: HT-29 solid tumors; assay: In vivo anti-tumor assay; design: species or system nude mice
Source text: Male BALB/c nu/nu mice at 5 week of age (18 g) were purchased from Japan SLC, Inc. (Shizuoka, Japan). Mice receiving standard laboratory chow and water ad libitum were acclimatized for 1 week before inoculation with cancer cells. For in vivo experiments, human colon HT-29 cells (1×10^7 cells/mouse) were subcutaneously injected into nude mice. Mice bearing solid tumors that had grown to approximately 100 mm^3 in volume (tumor volume = length×width×height) at 12 days after implantation were used for the assessment of anti-tumor effects. They were divided randomly into five groups (n = 6/group). One of the five groups was a control group injected with 0.1 mL of phosphate buffered saline (PBS) alone, and other groups were injected with vitamin K3 (3), juglone (4), C18:1-acyl juglone (5f), and C18:1-acyl plumbagin (2f) dissolved in PBS at a dose of 5 mg/kg. The above administrations all took place between days 12–39 subsequent to implantation. All mice were injected subcutaneously 14 times at […] with the compound and PBS alone (control). Tumor growth was measured at 1-day intervals for 40 days after implantation. At the end of the in vivo anti-tumor assay, some mice treated with the test compounds and PBS were independently examined to observe major organs such as lung, heart, spleen, stomach, liver, pancreas, kidney, intestine, and brain.

[4] = molecular target: T1, Rice pol λ (Oryza sativa subsp. japonica, UniProt Q67VC8); assay: DNA polymerase activity inhibition; assay type: biochemical, rice (Oryza sativa L. cv. Nipponbare)
T1 construct: His6 (C); made in house; host or cells: E. coli
T1 sequence (Q67VC8 whole entry): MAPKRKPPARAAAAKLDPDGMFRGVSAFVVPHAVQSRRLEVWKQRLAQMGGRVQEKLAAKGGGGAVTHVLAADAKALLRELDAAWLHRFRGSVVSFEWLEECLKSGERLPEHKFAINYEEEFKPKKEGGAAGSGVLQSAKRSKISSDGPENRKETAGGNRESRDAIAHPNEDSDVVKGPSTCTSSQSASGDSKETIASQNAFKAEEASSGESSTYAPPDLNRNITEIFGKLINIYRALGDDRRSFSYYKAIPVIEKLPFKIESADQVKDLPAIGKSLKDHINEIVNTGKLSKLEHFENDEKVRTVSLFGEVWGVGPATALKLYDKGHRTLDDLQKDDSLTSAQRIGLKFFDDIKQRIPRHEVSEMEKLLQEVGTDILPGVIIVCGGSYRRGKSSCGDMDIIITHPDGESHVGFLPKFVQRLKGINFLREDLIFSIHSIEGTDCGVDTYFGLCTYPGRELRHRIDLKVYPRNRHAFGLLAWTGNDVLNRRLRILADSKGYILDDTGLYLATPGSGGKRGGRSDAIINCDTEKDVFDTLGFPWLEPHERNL
Source text: (§2) Pol α was purified from calf thymus by immunoaffinity column chromatography as described by Tamai et al.. Recombinant rat pol β was purified from Escherichia coli JMpβ5 as described by Date et al.. The human pol γ catalytic gene was cloned into pFastBac. Histidine-tagged enzyme was expressed using the BACTO-BAC HT Baculovirus Expression System according to the manufacturer's instructions (Life Technologies, Frederick, MD, USA) and purified using ProBound resin (Invitrogen Japan, Tokyo Japan). Human pols δ and ε were purified by nuclear fractionation of human peripheral blood cancer cells (Molt-4) using the second subunit of pol δ and ε-conjugated affinity column chromatography, respectively. A truncated form of human pol η (residues 1–511) tagged with His6 at its C-terminal was expressed in E. coli cells and purified as described by Kusumoto et al.. A recombinant mouse pol ι tagged with His6 at its C-terminal was expressed and purified by Ni–NTA column chromatography. […]
(§3) The chemically synthesized 5-O-acyl plumbagins (2a–j) were dissolved in distilled dimethyl sulfoxide (DMSO) to various concentrations and sonicated for 30 s. […] Activity without inhibitor was considered 100%, and the relative activity was determined for each inhibitor concentration. […]

[5] = molecular target: T2, Calf TdT (Bos taurus, UniProt P06526); assay: TdT activity inhibition; assay type: biochemical; details: 0.05 units enzyme; mean ± SD (n = 3)
T2 construct: purchased Takara Bio Inc. (Kyoto, Japan)
T2 sequence (P06526 whole entry): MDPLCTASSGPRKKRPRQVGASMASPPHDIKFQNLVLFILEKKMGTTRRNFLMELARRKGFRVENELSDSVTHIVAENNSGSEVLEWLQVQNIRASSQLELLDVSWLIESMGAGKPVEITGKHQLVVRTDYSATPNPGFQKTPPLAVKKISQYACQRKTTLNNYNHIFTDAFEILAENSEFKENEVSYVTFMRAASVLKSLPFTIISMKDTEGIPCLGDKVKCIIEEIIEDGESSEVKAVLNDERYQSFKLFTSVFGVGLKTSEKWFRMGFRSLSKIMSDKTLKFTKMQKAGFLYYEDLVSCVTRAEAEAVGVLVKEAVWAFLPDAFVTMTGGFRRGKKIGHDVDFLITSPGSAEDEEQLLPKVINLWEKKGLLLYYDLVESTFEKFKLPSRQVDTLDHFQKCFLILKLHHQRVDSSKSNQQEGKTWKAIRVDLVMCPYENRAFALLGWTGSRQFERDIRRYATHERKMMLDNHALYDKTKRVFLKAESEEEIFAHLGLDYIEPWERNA
Source text: as §2, §3

Chain of Mouse IMP dehydrogenase (type II) (P24547 whole entry): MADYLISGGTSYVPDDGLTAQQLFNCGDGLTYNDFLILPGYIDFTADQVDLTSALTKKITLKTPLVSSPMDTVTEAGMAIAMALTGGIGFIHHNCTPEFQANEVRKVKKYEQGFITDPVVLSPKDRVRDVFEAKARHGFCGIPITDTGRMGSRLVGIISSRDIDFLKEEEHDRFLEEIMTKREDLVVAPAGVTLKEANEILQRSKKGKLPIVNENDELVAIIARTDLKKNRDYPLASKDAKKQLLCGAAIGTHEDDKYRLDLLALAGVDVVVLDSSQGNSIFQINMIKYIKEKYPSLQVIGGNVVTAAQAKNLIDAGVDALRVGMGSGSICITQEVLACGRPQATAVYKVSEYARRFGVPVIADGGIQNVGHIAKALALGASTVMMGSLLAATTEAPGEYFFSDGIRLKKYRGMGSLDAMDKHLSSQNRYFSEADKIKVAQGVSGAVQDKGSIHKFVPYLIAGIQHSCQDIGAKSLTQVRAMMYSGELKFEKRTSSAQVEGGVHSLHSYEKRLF

## CCCCCCCC/C=C\CCCCCCCC(=O)Oc1cccc2c1C(=O)C=C(C)C2=O [2f, 5-O-oleoyl-2-methyl-1,4-naphthoquinone]
[1]
  effect on enzyme activity (in words): did not inhibit
[1]; 0.05 units enzyme
  IC50: > 100 µM
[2]
  effect on enzyme activity (in words): did not inhibit
[2]; 0.05 units enzyme
  IC50: > 100 µM
[3]; 5 mg/kg, versus vitamin K3, juglone, C18:1-acyl juglone
  anti-tumor effect, fold stronger than the other compounds tested: > 3 fold
[3]; at 40 days, 5 mg/kg subcutaneously in PBS, versus PBS control, n = 6
  decreased rates of tumor volume: 30.5%
[4]
  effect on enzyme activity (in words): had no effect
[4]; 0.05 units enzyme
  IC50: > 100 µM
[5]
  IC50: 10.6 ± 0.5 µM
